Reference: patent US20120115845A1, “THERAPEUTIC AGENTS” (priority 2007, published 2012)

Columns and labels:
human GHS receptor [1] = molecular target: T1, human GHS receptor (Homo sapiens, UniProt Q92847); test: h bind IC50 (binding assay, Table 1); conditions: human receptor; Table 1
human GHS receptor [2] = molecular target: T1, human GHS receptor; test: Ghrelin IP1 agonist assay (IP1 HTRF); type: cell-based; design: expressed in transfected cells; host or cells: HEK293s; conditions: for Emax: 2 h, agonist effect as % maximal effect of GHRP-6 (5 μM), read-out: h IP1 ag %; for EC50: HEK293s cells stably expressing human GHS receptor, 2 hours at 37° C., read-out: h IP1 ag EC50
Method in brief: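 Cells: HEK293s stably expressing human GHS receptor, in stimulation buffer containing 0.02% fatty acid free BSA.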

T1 sequence (Q92847 whole entry): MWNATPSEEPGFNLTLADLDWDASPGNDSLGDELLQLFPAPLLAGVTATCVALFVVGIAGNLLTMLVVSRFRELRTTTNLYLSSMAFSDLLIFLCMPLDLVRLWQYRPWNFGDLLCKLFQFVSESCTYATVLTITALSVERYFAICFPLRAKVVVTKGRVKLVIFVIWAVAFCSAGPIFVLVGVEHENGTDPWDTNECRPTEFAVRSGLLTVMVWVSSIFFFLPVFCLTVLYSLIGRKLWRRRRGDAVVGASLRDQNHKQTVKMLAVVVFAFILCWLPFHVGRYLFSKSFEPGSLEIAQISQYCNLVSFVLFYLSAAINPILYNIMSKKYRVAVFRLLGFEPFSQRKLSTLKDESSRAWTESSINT

IC50 (human GHS receptor [1]) [nM]	Emax (human GHS receptor [2]) [%]	EC50 (human GHS receptor [2]) [nM]	SMILES
22.3	39.2	18.5	CC(C)(C)OC(=O)N1CCC(CCS(=O)(=O)c2ccc3nc(NC(=O)NC(=O)c4ccccc4Cl)sc3c2)CC1 [Example 218, tert-Butyl 4-[2-[2-[(2-chlorobenzoyl)carbamoylamino]benzothiazol-6-yl]sulfonylethyl]piperidine-1-carboxylate]
17.8	64.5	29.3	O=C(NC(=O)c1ccccc1Cl)Nc1nc2ccc(S(=O)(=O)CC3CCNCC3)cc2s1 [Example 219, 2-Chloro-N-[[6-(4-piperidylmethylsulfonyl)benzothiazol-2-yl]carbamoyl]benzamide]
2.8	21.4	4.01	C#Cc1ccc(Cl)c(C(=O)NC(=O)Nc2nc3ccc(S(=O)(=O)CCCN4CCN(C)CC4)cc3s2)c1 [Example 220, 2-Chloro-5-ethynyl-N-[[6-[3-(4-methylpiperazin-1-yl)propylsulfonyl]benzothiazol-2-yl]carbamoyl]benzamide]
15.4	65	18.7	O=C(NC(=O)c1ccccc1Cl)Nc1nc2ccc(S(=O)(=O)CCC3CCNCC3)cc2s1 [Example 221, 2-Chloro-N-[[6-[2-(4-piperidyl)ethylsulfonyl]benzothiazol-2-yl]carbamoyl]benzamide]
18.6	58.2	43	COCCNC1CC(S(=O)(=O)c2ccc3nc(NC(=O)NC(=O)c4ccccc4Cl)sc3c2)C1 (stereo not drawn) [Example 222, 2-Chloro-N-[[6-[3-(2-methoxyethylamino)cyclobutyl]sulfonylbenzothiazol-2-yl]carbamoyl]benzamide]
95.8	24.8	62.1	CC(=O)NC1CC(S(=O)(=O)c2ccc3nc(NC(=O)NC(=O)c4ccccc4Cl)sc3c2)C1 (stereo not drawn) [Example 223, N-[[6-(3-Acetamidocyclobutyl)sulfonylbenzothiazol-2-yl]carbamoyl]-2-chlorobenzamide]
87.8	24.3	139	CC(C)NS(=O)(=O)c1ccc2nc(NC(=O)NC(=O)c3ccccc3Cl)sc2c1 [Example 224, 2-chloro-N-[[6-(isopropylsulfamoyl)-1,3-benzothiazol-2-yl]carbamoyl]benzamide]
60.3	27.8	224	CC(C)NCC(C)(C)S(=O)(=O)c1ccc2nc(NC(=O)NC(=O)c3ccccc3Cl)sc2c1 [Example 225, 2-chloro-N-(6-(1-(isopropylamino)-2-methylpropan-2-ylsulfonyl)benzo[d]thiazol-2-ylcarbamoyl)benzamide]
0.05	22.3	2.19	CCc1ccc(Cl)c(C(=O)NC(=O)Nc2nc3ccc(S(=O)(=O)CCCN4CCN(C)CC4)cc3s2)c1 [Example 226, 2-chloro-5-ethyl-N-(6-(3-(4-methylpiperazin-1-yl)propylsulfonyl)-benzo[d]thiazol-2-ylcarbamoyl)benzamide]
3790	10.6	≥ 20000	CC(=O)N1CCC(Oc2ccc(Cl)c(C(=O)NC(=O)Nc3nc4ccc(S(C)(=O)=O)cc4s3)c2)C1 (stereo not drawn) [Example 227, 5-(1-acetylpyrrolidin-3-yloxy)-2-chloro-N-(6-(methylsulfonyl)benzo[d]thiazol-2-ylcarbamoyl)benzamide]
1240	9.89	1370	CC(C)N1CCC[C@H](COc2ccc(Cl)c(C(=O)NC(=O)Nc3nc4ccc(S(C)(=O)=O)cc4s3)c2)C1 [Example 228, (S)-2-chloro-5-((1-isopropylpiperidin-3-yl)methoxy)-N-(6-(methylsulfonyl)benzo[d]thiazol-2-ylcarbamoyl)benzamide]
1970	18.2	117	NS(=O)(=O)c1ccc2nc(NC(=O)NC(=O)c3ccccc3Cl)sc2c1 [Example 229, 2-chloro-N-[(6-sulfamoyl-1,3-benzothiazol-2-yl)carbamoyl] benzamide]
19.3	12.6	46.5	CNS(=O)(=O)c1ccc2nc(NC(=O)NC(=O)c3ccccc3Cl)sc2c1 [Example 230, 2-chloro-N-[[6-(methylsulfamoyl)-1,3-benzothiazol-2-yl]carbamoyl] benzamide]
67.3	15.7	72.1	O=C(NC(=O)c1ccccc1Cl)Nc1nc2ccc(S(=O)(=O)NCCO)cc2s1 [Example 231, 2-chloro-N-[[6-(2-hydroxyethyl-sulfamoyl)-1,3-benzothiazol-2-yl]carbamoyl] benzamide]
31.4	12.6	56.1	CN(C)S(=O)(=O)c1ccc2nc(NC(=O)NC(=O)c3ccccc3Cl)sc2c1 [Example 232, 2-chloro-N-[[6-(dimethylsulfamoyl)-1,3-benzothiazol-2-yl]carbamoyl] benzamide]
39.1	10.4	≥ 20000	CN(C)[C@@H]1CCN(c2ccc(Cl)c(C(=O)NC(=O)Nc3nc4ccc(S(C)(=O)=O)cc4s3)c2)C1 [Example 233, (R)-2-chloro-5-(3-(dimethylamino)pyrrolidin-1-yl)-N-(6-(methylsulfonyl)benzo[d]thiazol-2-ylcarbamoyl) benzamide]
3.82	6.73	≥ 20000	CC(C)(C)OC(=O)N1CCN(c2ccc(Cl)c(C(=O)NC(=O)Nc3nc4ccc(S(C)(=O)=O)cc4s3)c2)CC1 [Example 234, tert-butyl 4-(4-chloro-3-(6-(methylsulfonyl)benzo[d]thiazol-2-ylcarbamoyl-carbamoyl)phenyl) piperazine-1-carboxylate]
22.7	19.6	≥ 20000	CN(C)[C@H]1CCN(c2ccc(Cl)c(C(=O)NC(=O)Nc3nc4ccc(S(C)(=O)=O)cc4s3)c2)C1 [Example 235, (S)-2-chloro-5-(3-(dimethylamino)pyrrolidin-1-yl)-N-(6-(methylsulfonyl)benzo[d]thiazol-2-ylcarbamoyl) benzamide]
4090	3.72	≥ 20000	CN(C)C1CCN(c2ccc(Cl)c(C(=O)NC(=O)Nc3nc4ccc(S(C)(=O)=O)cc4s3)c2)CC1 [Example 236, 2-chloro-5-(4-(dimethylamino)piperidin-1-yl)-N-(6-(methylsulfonyl)benzo[d]thiazo1-2-ylcarbamoyl) benzamide]
0.7	0	≥ 20000	Cc1cc(C)n(-c2ccc(Cl)c(C(=O)NC(=O)Nc3nc4ccc(S(=O)(=O)CCCN5CCN(C)CC5)cc4s3)c2)n1 [Example 237, 2-chloro-5-(3,5-dimethyl-1H-pyrazol-1-yl)-N-(6-(3-(4-methylpiperazin-1-yl)propylsulfonyl)benzo[d]thiazol-2-ylcarbamoyl) benzamide]
0.47	9.98	43.4	CN1CCCN(CCCS(=O)(=O)c2ccc3nc(NC(=O)NC(=O)c4cc(I)ccc4Cl)sc3c2)CC1 [Example 238, 2-chloro-5-iodo-N-(6-(3-(4-methyl-1,4-diazepan-1-yl)propylsulfonyl)benzo[d]thiazol-2-ylcarbamoyl) benzamide]
150	0	≥ 20000	CCN(CC)C1CCN(c2ccc(Cl)c(C(=O)NC(=O)Nc3nc4ccc(S(C)(=O)=O)cc4s3)c2)C1 (stereo not drawn) [Example 239, 2-chloro-5-(3-(diethylamino)pyrrolidin-1-yl)-N-(6-(methylsulfonyl)benzo[d]thiazol-2-ylcarbamoyl) benzamide]
8.83	80.9	28.1	CN1CCN(CCCS(=O)(=O)c2ccc3nc(NC(=O)NC(=O)c4cccc(-n5cccn5)c4Cl)sc3c2)CC1 [Example 240, 2-chloro-N-(6-(3-(4-methylpiperazin-1-yl)propylsulfonyl)benzo[d]thiazol-2-ylcarbamoyl)-3-(1H-pyrazol-1-yl)benzamide]
0.31	0	≥ 20000	CN1CCN(CCCS(=O)(=O)c2ccc3nc(NC(=O)NC(=O)c4cc(-n5cccn5)c(Cl)cc4Cl)sc3c2)CC1 [Example 241, 2,4-dichloro-N-(6-(3-(4-methylpiperazin-1-yl)propylsulfonyl)benzo[d]thiazol-2-ylcarbamoyl)-5-(1H-pyrazol-1-yl)benzamide]
0.62	9.32	≥ 20000	COc1cc(Cl)c(C(=O)NC(=O)Nc2nc3ccc(S(=O)(=O)CCCN4CCN(C)CC4)cc3s2)cc1-n1cccn1 [Example 242, 2-chloro-4-methoxy-N-(6-(3-(4-methylpiperazin-1-yl)propylsulfonyl)benzo[d]thiazol-2-ylcarbamoyl) 5-(1H-pyrazol-1-yl)benzamide]
14.3	7.67	9.34	CC(C)(C)OC(=O)N1CCC(Oc2ccc(Cl)c(C(=O)NC(=O)Nc3nc4ccc(S(C)(=O)=O)cc4s3)c2)CC1 [Example 243, tert-butyl 4-(4-chloro-3-(6-(methylsulfonyl)benzo[d]thiazol-2-ylcarbamoyl-carbamoyl)phenoxy) piperidine-1-carboxylate]
2060	22.6	19700	CN1CCC(Oc2ccc(Cl)c(C(=O)NC(=O)Nc3nc4ccc(S(C)(=O)=O)cc4s3)c2)CC1 [Example 244, 2-chloro-5-(1-methylpiperidin-4-yloxy)-N-(6-(methylsulfonyl)benzo[d]thiazol-2-ylcarbamoyl) benzamide]
6.52	0	≥ 20000	CC(C)(CN1CCCC1)S(=O)(=O)c1ccc2nc(NC(=O)NC(=O)c3cc(N4CCOCC4)ccc3Cl)sc2c1 [Example 245, 2-chloro-N-(6-(2-methyl-1-(pyrrolidin-1-yl)propan-2-ylsulfonyl)benzo[d]thiazol-2-ylcarbamoyl)-5-morpholino-benzamide]
